# How the values were obtained:
# Escherichia coli = details: cited from earlier work; for antibacterial activity against Escherichia coli: benzaldehyde derivatives, each demonstrated; for antimicrobial activity against Escherichia coli: each known
# Saccharomyces cerevisiae = details: cited from earlier work
# [1] = in vitro biochemical assay for beta-etherase activity on fluorescent substrate MUAV (formation of 4MU), clarified E. coli cell extracts
# Method: This. example describes a method for gene expression in E. coli, as well as beta-etherase biochemical assays. Expression of known and putative beta-etherase genes was performed using 5 ml cultures of the recombinant E. coli strains described herein in Luria Broth medium by induction of gene expression using isopropylthiogalactoside (IPTG) to a final concentration of 0.1 mM. Following induction, and cell harvest, the cells were disrupted using either sonication or the BPER (Invitrogen) cell lysis system.
# In vitro reactions were performed in a total volume of 200 ul and contained: 25 mM TrisHCl pH 7.5; 0.5 mM dithiothreitol; 1 mM glutathione; 0.05 mM or 0.1 mM MUAV; 10 ul of clarified cell extract used to initiate the reactions. Following incubation for 2.5 hours at room temperature, a 50 ul sample of the reactions was terminated using 150 uL of 300 mM glycine/NaOH buffer pH 9. The formation of 4 methylumbelliferone (4MU) upon hydrolysis of the aryl ether bond was monitored by the increase in fluorescence at λex=360 nm and λem=450 nm using a Spectramax UV/visible/fluorescent spectrophotometer.
# The total protein concentrations of the cell lysates were determined using the BCA reagent system for protein quantification (Pierce). […]
# [2] = E. coli cell extracts expressing the protein, reactions containing 0.1 mM MUAV substrate
# [3] = MUAV substrate, LigF-type proteins
molecule,measurement,setting,value
"O=Cc1c(O)cc(O)cc1O [2,4,6-trihydroxybenzaldehyde]",antibacterial activity against Escherichia coli,Escherichia coli,antibacterial activity
"O=Cc1ccc(O)cc1O [2,4-dihydroxybenzaldehyde]",antibacterial activity against Escherichia coli,Escherichia coli,antibacterial activity
O=C(O)/C=C/c1ccccc1O [o-coumaric acid],antifungal activities against the yeast Saccharomyces cerevisiae,Saccharomyces cerevisiae,significant antifungal activities
"O=Cc1cccc(O)c1O [2,3-dihydroxybenzaldehyde]",antibacterial activity against Escherichia coli,Escherichia coli,antibacterial activity
O=C(O)/C=C/c1ccc(O)cc1 [p-coumaric acid],antifungal activities against the yeast Saccharomyces cerevisiae,Saccharomyces cerevisiae,significant antifungal activities
COc1cc(C=O)cc(OC)c1O [syringaldehyde],antimicrobial activity against Escherichia coli,Escherichia coli,antimicrobial activity
"O=Cc1ccc(O)c(O)c1O [2,3,4-trihydroxybenzaldehyde]",antibacterial activity against Escherichia coli,Escherichia coli,antibacterial activity
"O=Cc1cc(O)ccc1O [2,5-dihydroxybenzaldehyde]",antibacterial activity against Escherichia coli,Escherichia coli,antibacterial activity
COc1cc(C=O)ccc1O [vanillin],antimicrobial activity against Escherichia coli,Escherichia coli,antimicrobial activity
COc1cccc(C=O)c1O [2-hydroxy-3-methoxybenzaldehyde],antibacterial activity against Escherichia coli,Escherichia coli,antibacterial activity
O=C(O)/C=C/c1cccc(O)c1 [m-coumaric acid],antifungal activities against the yeast Saccharomyces cerevisiae,Saccharomyces cerevisiae,significant antifungal activities
O=Cc1ccc(CO)o1 [5-hydroxymethylfurfural],antimicrobial activity against Escherichia coli,Escherichia coli,antimicrobial activity
O=Cc1ccc(O)cc1 [4-hydroxybenzaldehyde],antimicrobial activity against Escherichia coli,Escherichia coli,antimicrobial activity
COc1cc(CCC(C)=O)ccc1O [vanillylacetone],antifungal activities against the yeast Saccharomyces cerevisiae,Saccharomyces cerevisiae,significant antifungal activities
O=C(O)C=Cc1ccccc1 [cinnamic acid],antifungal activities against the yeast Saccharomyces cerevisiae,Saccharomyces cerevisiae,significant antifungal activities
COc1cc(C(=O)O)ccc1O [vanillic acid],antifungal activities against the yeast Saccharomyces cerevisiae,Saccharomyces cerevisiae,significant antifungal activities
O=Cc1ccco1 [furfural],antimicrobial activity against Escherichia coli,Escherichia coli,antimicrobial activity
"COc1cc(O)cc(OC)c1C=O [4-hydroxy-2,6-dimethoxybenzaldehyde]",antibacterial activity against Escherichia coli,Escherichia coli,antibacterial activity
O=Cc1ccccc1O [2-hydroxybenzaldehyde],antibacterial activity against Escherichia coli,Escherichia coli,antibacterial activity
COc1ccc(C=O)cc1OC [Veratraldehyde],antifungal activities against the yeast Saccharomyces cerevisiae,Saccharomyces cerevisiae,significant antifungal activities
COc1ccc(O)c(C=O)c1 [2-hydroxy-5-methoxybenzaldehyde],antibacterial activity against Escherichia coli,Escherichia coli,antibacterial activity
"ligE1: N. aromaticivorans putative beta-etherase polypeptide, glutathione S-transferase-like protein, expressed in E. coli (protein) MAANNTITFYDLALSTGATISPFVWATKYALKHKGFDLDVVPGGFTGILERTGGKTERLPAIVDDGEFVLDSWGIVEYLDAKYPDRPVLIPHESVAATLKALDNWFWNAAVGPWMFCFCQDYRDLSLPQDHEYVTHSREKMLGRKLEEVQAGREERLPKISAALEPLRAALAQHQWLGGSSPNYADYRIMGGILFTASVCKTPVLANDDPLRDWIERCLDLYGGLGRHPGLFPLFGLEQREGDPDLFNRAAGQGGIYKRNTGPESTRAETQRITEGMKK",total activity (beta-etherase),[1]; [2],529 rfu/ug
same,beta-etherase activity (in words),[1]; MUAV substrate,much elevated beta-etherase activity
same,beta-etherase activity (in words),"[1]; MUAV substrate, listed as ABD26841.1",beta-etherase activity
ABD27309.1: N. aromaticivorans putative beta-etherase polypeptide (protein) MDEVSLYHWEPNANSGKPMLALMEKGVPFSSHYIDMLQFDQHKPEYLAINPQGTIPAMTHNGQVLTESTAIMEYVNDRFDGPDLMPADAQDRWRVRWWMKFMDQWLGPSFSMIGWSVFVGPMVRQRDPAELAAAIDRIPLPERRTAWRKAINGDFSESEMAESRRRVGLGIAKLEEELGKRPYVGSNQYSLADINIFNSTYSLPISQPDLAGKDRTPNIMRWLKRVYTREAVKKTWAMGKTDLAHRYGLIMAEIEG,beta-etherase activity (in words),[1]; MUAV substrate,beta-etherase activity
"LigF2: N. aromaticivorans putative beta-etherase polypeptide, glutathione S-transferase-like protein (protein) MALKYYHAEPLANSLKSMVPLKEKGLAYESIYVDLHKFEQHQPWFTAINPEGQVPVLDHDGTIITHTTVINEYLEDAFPDAQPADAPLRPRDPVGAARMRYWNKFIDEHVMNYVSMHGWHRMVGVIARNIASGDFEKLLESIPLPDQRKKWATARSGFSEADLANATAKIEYALDKVEKQLGETKWLAGDTYTLADINFYSHCGAMVERMFPEMEVARRAPRLCEWRDRVAARPAVAEALKSEDRTAPGLRVWSGEVR",beta-etherase activity (in words),[1]; MUAV substrate,beta-etherase activity
same,total activity (beta-etherase),[1]; [3],1206 rfu/ug
"LigF: S. paucimobilis beta-etherase, positive control polypeptide (protein) MTLKLYSFGPGANSLKPLATLYEKGLEFEQVFVDPSKFEQHSDWFKKINPRGQVPALWHDGKVVTESTVICEYLEDVFPESGNSLRPADPFKRAEMRVWTKWVDEYFCWCVSTIGWAFGIKAIAQKMSDEEFEEHINKNVPIPEQQLKWRRARNGFPQEMLDEEFRKVGVSVARLEETLSKQDYLVDTGYSLADICNFAIANGLQRPGGFFGDYVNQEKTPGLCAWLDRINARPAIKEMFEKSKREDLLKRQNEKVA",total activity (beta-etherase),[1]; [3],558 rfu/ug
ABD26530.1: N. aromaticivorans putative beta-etherase polypeptide (protein) MVIPLGEDNTIMLKLYSFGPAANSMKPLLTVFEKGLDVEKHRLDPAKFEHHTDWFKAINPRGQVPALVDGDKVVTESTVICEYLEDEYPTEVALRPADSFGKAQMRIWTKWVDEYFCWCVSTIGWHRYVGNMVKSLSDAEFEEKVKAIPVIEQQVKWRRAREGFPQDMLDEEMRKIAYSVRKLDDHLADHEWLVPGQYTLADICNFAIANGMQFGFAELVNKQDTPHLVRWIEQINERPAVKQMFAQVELEKLGPRE,beta-etherase activity (in words),[1]; MUAV substrate,beta-etherase activity
"ligE: S. paucimobilis beta-etherase, positive control polypeptide (protein) MARNNTITLYDLQLESGCTISPYVWRTKYALKHKGFDIDIVPGGFTGILERTGGRSERVPVIVDDGEWVLDSWVIAEYLDEKYPDRPMLFEGPTQKNLMKFLDNWLWSTAVGPWFRCYILDYHDLSLPQDRDYVRWSREQWFLGGQRLEDVQAGREDRLPLVPPTLEPFRRILAETKWLGGDQPNFADYSALAVFLWTASVARTPPLTEDDPLRDWLDRGFDLFDGLGRHPGMNPLFGLKLREGDPEPFVRQTGPAGAGGQALNKGPQTTKMPPRVAEKAD",total activity (beta-etherase),[1]; [2],7 rfu/ug

# Source: US20120202257A1, “LIGE-TYPE ENZYMES FOR BIOCONVERSION OF LIGNIN-DERIVED COMPOUNDS” (priority 2010, published 2012)
